Measurements published in patent US20230137021A1, “Drug Conjugates of Sugar Derivatives and Uses Thereof as Senolytic Agents” (Rubedo Life Sciences, Inc., priority 2021, published 2023).
pIC50: −log10 of the molar value. Like-named read-outs stand apart in the source and are kept apart here.

Columns and labels:
Assay type in all cases: cell-based
[1] = test system: T47D breast cancer cells, sgFUCA1; test: CRISPR-engineered cancer cell line viability assay (XTT), T47D/sgFUCA1; settings: T47D cells with Cas9 and sgFUCA1, treated for three days, absolute IC50 at Y=0.5 viability
Method: (§1) T47D and HCC1954 breast cancer cells were cultured in RPMI 1640 medium containing 10% heat inactivated fetal bovine serum. Cell lines were infected with lentiviral construct(s) containing S. pyogenes Cas9 and sgRNA(s) targeting the gene(s) of interest. Infected cells were selected by antibiotic treatment. To assess cell viability in response to compound treatment, cells were seeded into 96-well plates. The next day, serial dilutions covering 10 concentrations of compound were added to the cells. Cells were treated for three days. Cell viability was determined by mitochondrial dehydrogenase activity (XTT assay, Cayman Chemical). To generate dose-response curves, data was fitted to a four-parameter Hill function and the absolute IC50 was determined at Y=0.5 viability.

[2] = test system: T47D breast cancer cells, sgNTC; test: CRISPR-engineered cancer cell line viability assay (XTT), T47D sgNTC; settings: T47D cells with Cas9 and sgNTC, treated for three days, absolute IC50 at Y=0.5 viability, read-out: T47/D sgNTC
Method: as §1

senescent A549 cells = test: Cytotoxicity assay (XTT), senescent A549 cells; settings: A549 senescence induced with 25 μM gemcitabine, incubated with drug for 72 hours, read-out: A549 SEN
Method: (§2) Proliferating and senescent cells were maintained in T175 flasks under the conditions specified below, passaging upon reaching ˜90% confluency. Prior to use in cytotoxicity assays, cells were visually inspected under phase microscopy for contamination and health; if either contamination or significant cell debris was noted, cells were not used. Healthy cells were plated into the middle 60 wells of 96-well plates at a concentration of either 5,000 or 10,000 cells/well (for proliferating and senescent conditions, respectively). The outer 36 wells in each plate contained DPBS to both prevent desiccation of the interior wells and edge effects upon spectrometry readings. After seeding cells into the 96-well plates, they were given 24 hours to attach prior to drug addition. Drug was added in triplicate across 10 different concentrations, spanning roughly 4 Log 10 units. Plates were incubated with drug for 72 hours, at which point the drug-containing media was aspirated and replaced with XTT media. The XTT reagent undergoes an absorbance shift upon reduction through an NAD(P)H-dependent metabolic reaction, and the resulting shift can be used to quantify the viability of the remaining cells after drug treatment. Absorbance readings for each test article were taken once a suitable dynamic range was achieved (generally 0.7-1.4 absorbance units). The resulting data was then background corrected and logarithmized to produce concentration-response curves.
Wild type A549 cells were thawed into DMEM (high glucose, 4 mM L-glutamine, no sodium pyruvate) supplemented with 10% heat-inactivated fetal bovine serum and 1% penicillin-streptomycin antibiotic cocktail. Cells were cultured at 37 C, 5% CO2, and atmospheric oxygen. For senescence induction, only A549s at passage 20 or lower were used. Cells were grown to 60-70% confluency before aspirating media and replacing with fresh media containing 25 μM gemcitabine. Cells were cultured without refreshing media for 72 hours. After treatment, the drug-containing media was aspirated, cells were gently washed with 1×DPBS, and fresh, drug-free media was added to the flask, at which point the cells were allowed to rest for a further 72 hours. Following this rest period, senescence induction was assessed by morphology, SA-β-gal activity, and EdU incorporation. Note: senescence induction with gemcitabine can occasionally result in spontaneous re-entry into the cell cycle in A549s. For this reason, cells should be used in various assays within 14 days of induction to avoid outgrowth of non-senescent populations. In cytotoxicity assays, proliferating cells at passage 20 or younger were included as a comparator. […]

[3] = test system: senescent IMR90 primary lung fibroblasts; test: Cytotoxicity assay (XTT), senescent IMR90 cells; settings: incubated with drug for 72 hours, read-out: IMR90 SEN
Method: as §2, with “After seeding cells into the 96-well plates, they were given 24 hours to attach prior to drug addition. Drug was added in triplicate across 10 different concentrations, spanning roughly 4 Log 10 units. Plates were incubated with drug for 72 hours, at which point the drug-containing media was aspirated and replaced with XTT media.” left out, “The resulting data was then background corrected and logarithmized to produce concentration-response curves.” left out
IMR90 primary lung fibroblasts were thawed into DMEM (high glucose, 4 mM L-glutamine, no sodium pyruvate) supplemented with 10% heat-inactivated fetal bovine serum and 1% penicillin-streptomycin antibiotic cocktail. […] Following this rest period, senescence induction was assessed by morphology, SA-β-gal activity, and EdU incorporation. […]

[4] = test system: T47D breast cancer cells, sgGLB sgGALC; test: CRISPR-engineered cancer cell line viability assay (XTT), T47D/sgGLB sgGALC; settings: Homo sapiens, 72 h, T47D cells with Cas9 and sgGLB sgGALC, treated for three days, absolute IC50 at Y=0.5 viability
Method: as §1

| Molecule | pIC50 ([1]; Homo sapiens, 72 h) | pIC50 ([2]; Homo sapiens, 72 h) | pIC50 (senescent A549 cells; Homo sapiens) | also measured |
| --- | --- | --- | --- | --- |
| Cc1[nH]c2ccccc2c1CCN(Cc1ccc(/C=C/C(=O)NO[C@H]2C[C@H](O)[C@@H](O)[C@H](C)O2)cc1)C(=O)OCc1oc(=O)oc1C [Compound 106] | 4.53 | – | – | – |
| Cc1[nH]c2ccccc2c1CCNCc1ccc(/C=C/C(=O)NO[C@@H]2O[C@H](CF)[C@H](O)[C@H](O)[C@H]2O)cc1 [Compound 122, (E)-N-[(2S,3R,4S,5R,6S)-6-(fluoromethyl)-3,4,5-trihydroxy-tetrahydropyran-2-yl]oxy-3-[4-[[2-(2-methyl-1H-indol-3-yl)ethylamino]methyl]phenyl]prop-2-enamide] | – | < 4.52 | – | pIC50 [4]: < 4.52 |
| C/C(=C\C=C\CNCCc1c(C)[nH]c2ccccc12)C/C=C/C(=O)NOC1O[C@H](CO)[C@H](F)[C@H](O)[C@H]1O (some centres unmarked) [Compound 126] | – | – | < 4.52 | – |
| (2E)-N-{[(3aR,4S,7aS)-4-methyl-2-oxo-hexahydro-[1,3]dioxolo[4,5-c]pyran-6-yl]oxy}-3-[4-({[2-(2-methyl-1H-indol-3-yl)ethyl]amino}methyl)phenyl]prop-2-enamide [Compound 109] | – | – | – | pIC50 [1]: 5.87; pIC50 (senescent A549 cells): 5.64; pIC50 [2]: 6.48; pIC50 ([3]; IMR90 senescence induced with 300 nM doxorubicin): 4.87 |

More lines, main results first:

| pIC50 ([1]; Homo sapiens, 72 h) | pIC50 ([2]; Homo sapiens, 72 h) | Molecule | pIC50 (senescent A549 cells; Homo sapiens) | also measured |
| --- | --- | --- | --- | --- |
| 5.54 | 7.27 | CC(=O)O[C@H]1[C@H](C)O[C@@H](ONC(=O)/C=C/c2ccc(CN(CCc3c(C)[nH]c4ccccc34)C(=O)OCc3oc(=O)oc3C)cc2)C[C@@H]1OC(C)=O [Compound 105] | – | – |
| 6.00 | 8.03 | CC(=O)O[C@@H]1[C@H](C)O[C@@H](ONC(=O)c2cnc(N3CCC(CNCc4cn(C)c5ccccc45)CC3)nc2)C[C@@H]1OC(C)=O [Compound 107, (2S,3R,4S,6S)-3-(acetyloxy)-2-methyl-6-[({2-[4-({[(1-methyl-1H-indol-3-yl)methyl]amino}methyl)piperidin-1-yl]pyrimidin-5-yl}formamido)oxy]oxan-4-yl acetate] | – | – |
| 5.06 | 6.03 | C[C@@H]1O[C@@H](ONC(=O)c2cnc(N3CCC(CNCc4cn(C)c5ccccc45)CC3)nc2)C[C@H](O)[C@@H]1O [Compound 108, N-{[(2S,4S,5S,6S)-4,5-dihydroxy-6-methyloxan-2-yl]oxy}-2-[4-({[(1-methyl-1H-indol-3-yl)methyl]amino}methyl)piperidin-1-yl]pyrimidine-5-carboxamide] | – | – |
| 5.95 | 7.60 | CC(=O)O[C@H]1[C@H](C)O[C@@H](ONC(=O)/C=C/c2ccc(CNCCc3c(C)[nH]c4ccccc34)cc2)C[C@@H]1OC(C)=O [Compound 111] | 6.61 | pIC50 ([3]; Homo sapiens, IMR-90, IMR90 senescence induced with 300 nM doxorubicin): 5.42 |
| 4.79 | 6.09 | Cc1[nH]c2ccccc2c1CCNCc1ccc(/C=C/C(=O)NO[C@H]2C[C@H](O)[C@@H](O)[C@H](C)O2)cc1 [Compound 112] | – | – |
| – | 5.01 | Cc1[nH]c2ccccc2c1CCNCc1ccc(/C=C/C(=O)NO[C@@H]2O[C@H](CO)C[C@H](O)[C@H]2O)cc1 [Compound 124, (E)-N-[(2S,3R,4S,6S)-3,4-dihydroxy-6-(hydroxymethyl)tetrahydropyran-2-yl]oxy-3-[4-[[2-(2-methyl-1H-indol-3-yl)ethylamino]methyl]phenyl]prop-2-enamide] | 4.17 | pIC50 [4]: < 4.52 |
